These results are taken from patent US7700106B2, “Therapeutic agent for ulcerative colitis” (priority 2001, dated 2010).

In data set [1] the test system is Fusobacterium varium. The data set is described as follows: Susceptibility of Fusobacterium varium to antimicrobial agents. The format is cell-based. The text has this: The susceptibility to Fusobacterium varium in antimicrobial agents was examined.
The test system of data set [2] is mice.

For `CC[C@H]1OC(=O)[C@H](C)[C@@H](O[C@H]2C[C@@](C)(OC)[C@@H](O)[C@H](C)O2)[C@H](C)[C@@H](O[C@@H]2O[C@H](C)C[C@H](N(C)C)[C@H]2O)[C@](C)(OC)C[C@@H](C)C(=O)[C@H](C)[C@@H](O)[C@]1(C)O` [clarithromycin], the “resistance of Fusobacterium varium to antimicrobial agent” value (“resistance of Fusobacterium varium” for short) in data set [1] was “resistant”.
Same read-out and setting: in the case of gentamycin it was “resistant”.
In the case of `CCCC(=O)O` [butyric acid], in data set [2] (mice, twenty-four hours after enema), the “colonic lesions after enema” value was “colonic ulcers with crypt abscesses, inflammatory cell infiltration and apoptotic changes”. Besides, in data set [2] (mouse, injected into the rectum), the “lesion after injection into the rectum” value is on record as “a lesion similar to ulcerative colitis was induced”.
Turning to `[H]/N=C(/N)N[C@H]1[C@H](O)[C@@H](O)[C@H](O[C@@H]2O[C@@H](C)[C@](O)(C=O)[C@H]2O[C@@H]2O[C@@H](CO)[C@H](O)[C@@H](O)[C@@H]2NC)[C@@H](N/C(N)=N\[H])[C@@H]1O` [streptomycin], in data set [1], the “resistance of Fusobacterium varium” value is listed as “resistant”.
`CC[C@H]1OC(=O)[C@H](C)[C@@H](O[C@H]2C[C@@](C)(OC)[C@@H](O)[C@H](C)O2)[C@H](C)[C@@H](O[C@@H]2O[C@H](C)C[C@H](N(C)C)[C@H]2O)[C@](C)(O)C[C@@H](C)C(=O)[C@H](C)[C@@H](O)[C@]1(C)O` [erythromycin]: the “resistance of Fusobacterium varium” value in data set [1] was “resistant”.
